Assay results as given in PubChem BioAssay AID2060618 (Molecular Pharmacology Branch, DTP, NCI, 2025).

Test system: 454973-116-R2-J3-PDC spheroids, percent test/control viability
Assay: Anticancer human tumor 454973-116-R2-J3-PDC patient-derived pancreatic carcinoma cell line growth inhibition [CLK]
Details: spheroids with HUVEC and MSC; for viability, T/C: stronger effect = lower value
In short: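 Multi-cell-type spheroids combined patient-derived tumor cells with HUVEC endothelial cells and human mesenchymal stem cells. Paired agents were dosed in half-log steps down from about clinical Cmax, or from 10 microM where Cmax was unknown.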

[1] = curve of first compound, second compound 0.0316 µM
[2] = curve of first compound, second compound 0.1 µM
[3] = curve of first compound, second compound 0.316 µM
[4] = curve of first compound, second compound 1 µM
[5] = curve of first compound, second compound 3.16 µM
[6] = curve of first compound, second compound 10 µM
[7] = second compound 0.0316 µM, first compound 0.0316 µM
[8] = second compound 0.0316 µM, first compound 0.1 µM
[9] = second compound 0.0316 µM, first compound 0.316 µM
[10] = second compound 0.0316 µM, first compound 1 µM
[11] = second compound 0.1 µM, first compound 0.0316 µM
[12] = second compound 0.1 µM, first compound 0.1 µM
[13] = second compound 0.1 µM, first compound 0.316 µM
[14] = second compound 0.1 µM, first compound 1 µM
[15] = second compound 0.316 µM, first compound 0.0316 µM
[16] = second compound 0.316 µM, first compound 0.1 µM
[17] = second compound 0.316 µM, first compound 0.316 µM
[18] = second compound 0.316 µM, first compound 1 µM
[19] = second compound 1 µM, first compound 0.0316 µM
[20] = second compound 1 µM, first compound 0.1 µM
[21] = second compound 1 µM, first compound 0.316 µM
[22] = second compound 1 µM, first compound 1 µM
[23] = second compound 3.16 µM, first compound 0.0316 µM
[24] = second compound 3.16 µM, first compound 0.1 µM
[25] = second compound 3.16 µM, first compound 0.316 µM
[26] = second compound 3.16 µM, first compound 1 µM
[27] = second compound 10 µM, first compound 0.0316 µM
[28] = second compound 10 µM, first compound 0.1 µM
[29] = second compound 10 µM, first compound 0.316 µM
[30] = second compound 10 µM, first compound 1 µM
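Note: spheroids exposed to compounds for 7 days before readout.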

Compound `COc1c(OCCCN2CCOCC2)ccc2c3n(c(=NC(=O)c4cnc(N)nc4)nc12)CCN3` + CNC(=O)c1ccc(Nc2nc(OC3CCCC3)c3c(-c4ccc5nc(C)oc5c4)c[nH]c3n2)c(OC)c1 has an IC50 [1] of 0.0722 µM, an IC50 [2] of 0.0669 µM and an IC50 [3] of 0.0179 µM. For the same compound, the IC50 [4] was less than 0.00316 µM, the IC50 [5] was less than 0.00316 µM and the IC50 [6] was less than 0.00316 µM. For the same compound, the viability, T/C (second compound 0.0316 µM, first compound 0.00316 µM) was 99.8%, the viability, T/C (second compound 0.0316 µM, first compound 0.01 µM) was 93% and the viability, T/C [7] was 71.3%. For the same compound, the viability, T/C [8] was 39%, the viability, T/C [9] was 24.4% and the viability, T/C [10] was 8.47%. For the same compound, the viability, T/C (second compound 0.1 µM, first compound 0.00316 µM) was 96.2%, the viability, T/C (second compound 0.1 µM, first compound 0.01 µM) was 79.6% and the viability, T/C [11] was 70.5%. For the same compound, the viability, T/C [12] was 37.5%, the viability, T/C [13] was 24.2% and the viability, T/C [14] was 8.81%. It also gave a viability, T/C (second compound 0.316 µM, first compound 0.00316 µM) of 56.4%, a viability, T/C (second compound 0.316 µM, first compound 0.01 µM) of 54.7% and a viability, T/C [15] of 47%. For the same compound, the viability, T/C [16] was 26.1%, the viability, T/C [17] was 17.5% and the viability, T/C [18] was 7.41%. For the same compound, the viability, T/C (second compound 1 µM, first compound 0.00316 µM) was 34.2%, the viability, T/C (second compound 1 µM, first compound 0.01 µM) was 30.5% and the viability, T/C [19] was 22.2%. For the same compound, the viability, T/C [20] was 13.1%, the viability, T/C [21] was 8.12% and the viability, T/C [22] was 4.63%. The viability, T/C (second compound 3.16 µM, first compound 0.00316 µM) was 25.7%, the viability, T/C (second compound 3.16 µM, first compound 0.01 µM) was 24.6% and the viability, T/C [23] was 21.1%. It also gave a viability, T/C [24] of 14.8%, a viability, T/C [25] of 7.11% and a viability, T/C [26] of 5.46%. It also gave a viability, T/C (second compound 10 µM, first compound 0.00316 µM) of 24.2%, a viability, T/C (second compound 10 µM, first compound 0.01 µM) of 22% and a viability, T/C [27] of 17.8%. It also gave a viability, T/C [28] of 13.3%, a viability, T/C [29] of 8.89% and a viability, T/C [30] of 3.02%.
`CN1CCN(c2cc(C(=O)Nc3cc4cc(-c5cnn(C)c5)ccc4cn3)ccn2)CC1` was tested, and the viability, T/C (compound 0.0316 µM) was 102% [middle of 12 runs], the viability, T/C (compound 0.1 µM) was 81.8% [middle of 12 runs] and the viability, T/C (compound 0.316 µM) was 2.31% [middle of 11 runs]. The viability, T/C (compound 1 µM) was 0.41% [middle of 10 runs], the viability, T/C (compound 3.16 µM) was 0.23% [middle of 9 runs] and the viability, T/C (compound 10 µM) was 0.25% [middle of 10 runs]. For the same compound, the IC50 (compound alone, run of 09/18/2023) was 159 nM [middle of 9 runs].
`Nc1ccccc1NC(=O)c1ccc(CNC(=O)OCc2cccnc2)cc1` + CNC(=O)c1ccc(Nc2nc(OC3CCCC3)c3c(-c4ccc5nc(C)oc5c4)c[nH]c3n2)c(OC)c1 gave an IC50 [1] of 1.62 µM, an IC50 [2] of 1.66 µM and an IC50 [3] of less than 0.0316 µM. The IC50 [4] was less than 0.0316 µM, the IC50 [5] was less than 0.0316 µM and the IC50 [6] was less than 0.0316 µM. The viability, T/C [7] was 97.2%, the viability, T/C [8] was 102% and the viability, T/C [9] was 87.2%. It also gave a viability, T/C [10] of 69.4%, a viability, T/C (second compound 0.0316 µM, first compound 3.16 µM) of 25.1% and a viability, T/C (second compound 0.0316 µM, first compound 10 µM) of 5.57%. It also gave a viability, T/C [11] of 107%, a viability, T/C [12] of 95.9% and a viability, T/C [13] of 91.8%. It also gave a viability, T/C [14] of 69%, a viability, T/C (second compound 0.1 µM, first compound 3.16 µM) of 26.8% and a viability, T/C (second compound 0.1 µM, first compound 10 µM) of 6.74%. The viability, T/C [15] was 46.9%, the viability, T/C [16] was 40.4% and the viability, T/C [17] was 42.2%. For the same compound, the viability, T/C [18] was 31.3%, the viability, T/C (second compound 0.316 µM, first compound 3.16 µM) was 19% and the viability, T/C (second compound 0.316 µM, first compound 10 µM) was 5.37%. The viability, T/C [19] was 29.1%, the viability, T/C [20] was 27.1% and the viability, T/C [21] was 23.6%. It also gave a viability, T/C [22] of 28.6%, a viability, T/C (second compound 1 µM, first compound 3.16 µM) of 16.8% and a viability, T/C (second compound 1 µM, first compound 10 µM) of 3.41%. The viability, T/C [23] was 28.7%, the viability, T/C [24] was 30.1% and the viability, T/C [25] was 24.4%. For the same compound, the viability, T/C [26] was 27.1%, the viability, T/C (second compound 3.16 µM, first compound 3.16 µM) was 17.2% and the viability, T/C (second compound 3.16 µM, first compound 10 µM) was 2.74%. For the same compound, the viability, T/C [27] was 26.9%, the viability, T/C [28] was 24.5% and the viability, T/C [29] was 21.1%. It also gave a viability, T/C [30] of 21.8%, a viability, T/C (second compound 10 µM, first compound 3.16 µM) of 16.8% and a viability, T/C (second compound 10 µM, first compound 10 µM) of 2.21%.
